“Also recorded” adds a separate entry of the source.
Key:
[1] = test system: SAC signal response (p-H3); experiment: Western blot of p-H3 (SAC signal response), nocodazole-treated HGADFN003 cells; assay type: cell-based, human; details: nocodazole 200 ng ml^–1 with UPCP
Description: Western blot was performed as previously described. Cells were lysed in 1× Laemmli sample buffer after washing twice in cold PBS without calcium and magnesium. Protein concentrations were determined using the bicinchoninic acid (BCA) protein assay. Protein lysates were subjected to SDS–PAGE, transferred to 0.45-μm pore size hydrophobic PVDF transfer membrane (Merck Millipore), detected with the appropriate primary antibodies coupled with horseradish peroxidase-conjugated corresponding secondary antibodies, and visualized using enhanced chemiluminescence ECL reagent (GE Healthcare). The Tanon 5500 high-definition low-illumination CCD system (Tanon FLI Capture v.1.02) was used to capture chemiluminescent signals.

IMR90 cells = experiment: CCK8 cell viability of IMR90 cells; assay type: cell-based, human; details: CCK8, UPCP 0, 10, 20, 30 μM, 0–72 h (also Ki67, CyclinA2, survival rate)
Description: Cell viability was assessed using the Cell Counting Kit-8 (CCK8) (APE, catalog no. k1018). The cells were plated in triplicate in 96-well plates (typically 10,000 cells per 100 μl per well) and were incubated with fresh medium for 24 h. Then, the cells were incubated with different concentrations (0 μM, 10 μM, 20 μM, 30 μM) of UPCP for 0 h, 24 h, 48 h or 72 h. CCK8 solution (10 μl) was added to the well for a 2 h incubation at 37 °C. Absorbance was measured at 450 nm with a 96-well plate reader (Tecan Infinite M NANO^+). Data were analyzed and further processed in i-control v.2.0 and GraphPad Prism v.7.

IMR90-progerin cells = experiment: γH2AX foci in IMR90-progerin cells; assay type: cell-based, human; details: for γH2AX foci per cell, n>10 / γH2AX foci per cell, n≤10: IMR90-Flag-progerin+UPCP
Description: (§1) Immunofluorescence was performed as described previously. Cells were plated on cover slips in 12-well plates, left overnight before the treatment. Cells were fixed in 1% formaldehyde in culture medium for 10 min at 37 °C and permeabilized with 0.2% Triton X-100 in PBS for 10 min at room temperature. Cells were washed twice in PBS and blocked for 1 h with 5% BSA in PBS and then incubated with primary antibodies at 4 °C overnight, washed three times in PBS and incubated with secondary antibodies for 1 h at room temperature. Cell nuclei were counterstained with a 500 nM concentration of 4,6-diamidino-2-phenylindole (DAPI) (Sigma). Images were acquired by a fluorescence microscope (OLYMPUS FV-1000, Carl Zeiss LSM880 or Leica DMi8) and analyzed with software NIS-Elements AR v.5.0.1 (Nikon), FLUOVIEW v.4.2b (OLYMPUS), ZEN v.2.3 SP1 (Carl Zeiss) and Leica Application Suite X v.3.6.0.24 (Leica). Cells were quantified by investigators who were blinded to the identity of the analyzed cell.

HGADFN003 cells = experiment: γH2AX-53BP1 foci in HGADFN003 cells; assay type: cell-based, human
Description: as §1

senescent IMR90 cells [2] = experiment: CCK8 cell viability of DNA damage-induced senescent IMR90 cells; assay type: cell-based, human; details: IMR90, 10 days after bleomycin, doxorubicin, ionizing radiation or etoposide
Description: (§2) Fibroblasts from patients with HGPS were obtained from The Progeria Research Foundation Cell and Tissue Bank (http://www.progeriaresearch.org). The following fibroblasts were used: HGADFN003, HGADFN167, HGMDFN090 and HGFDFN168. Human dermal fibroblasts (GM00038 and AG09602) were obtained from Coriell Cell Repository (https://catalog.coriell.org). These cells were characterized by DNA fingerprinting and isozyme detection and were tested by a MycoBlue Mycoplasma Detector (Vazyme Biotech) to exclude mycoplasma contamination before the experiments. […] HGADFN003, HGADFN167, HGMDFN090, HGFDFN168, GM00038 and AG09602 were cultured in DMEM medium with 15% (v/v) fetal bovine serum (VivaCell). […] For bleomycin-induced senescence, IMR90 cells were incubated with the culture medium containing 20 μg ml^–1 Bleomycin (Selleck, catalog no. S1214) for 2 h and analyzed 10 days later, or as otherwise indicated. For doxorubicin-induced senescence, IMR90 cells were treated twice with 100 nM Doxorubicin (Selleck, catalog no. S1208) with a 2 day interval and analyzed 10 days later, or as otherwise indicated. For ionizing radiation (IR)-induced senescence, IMR90 cells were exposed to 10 Gy Gamma rays, and analyzed 10 days later, or as otherwise indicated, the control IMR90 cells were mock irradiated. […]
Cell viability was assessed using the Cell Counting Kit-8 (CCK8) (APE, catalog no. k1018). […]

HGPS cells = experiment: Cellular uptake of FITC-modified UPCP; assay type: cell-based, human
Description: as §2

BUBR1–PTBP1 binding = experiment: CoIP of PTBP1 and BUBR1 in HEK-293T cells; assay type: cell-based; details: UPCP 18 μM, 48 h
Description: Detailed descriptions of CoIP were described previously[55],[56]. Cells were harvested and washed three times in cold PBS, then lysed in CoIP buffer (25 mM Tris-HCl (pH 7.5), 150 mM KCl, 5 mM EDTA, and 0.5% NP-40) plus protease inhibitor cocktail tablet (Roche). Incubate on ice and shock lysates on the vortex shaker 15 times for 30 s each. Microcentrifuge in 12,000g for 15 min at 4 °C, collect the supernatant, and incubate with 3 μg primary antibodies with gentle shaking overnight at 4 °C, followed by adding 20–40 μl Pure Proteome Protein A/G Mix Magnetic Beads (Millipore, catalog no. […]02) for 3 h. Wash the beads three times with 1 ml CoIP buffer for 8 min each, resuspend in 50 μl 1× loading buffer, and incubate at 100 °C for 8 min. Throw beads away and analyze by immunoblotting.

senescent IMR90 cells [3] = experiment: Ki67 immunofluorescence of DNA damage-induced senescent IMR90 cells; assay type: cell-based, human; details: UPCP
Description: Fibroblasts from patients with HGPS were obtained from The Progeria Research Foundation Cell and Tissue Bank (http://www.progeriaresearch.org). The following fibroblasts were used: HGADFN003, HGADFN167, HGMDFN090 and HGFDFN168. Human dermal fibroblasts (GM00038 and AG09602) were obtained from Coriell Cell Repository (https://catalog.coriell.org). These cells were characterized by DNA fingerprinting and isozyme detection and were tested by a MycoBlue Mycoplasma Detector (Vazyme Biotech) to exclude mycoplasma contamination before the experiments. […] HGADFN003, HGADFN167, HGMDFN090, HGFDFN168, GM00038 and AG09602 were cultured in DMEM medium with 15% (v/v) fetal bovine serum (VivaCell). All cell lines were grown at 37 °C with 5% CO2 and IMR90, CRL-1474, HGADFN003, HGADFN167, HGMDFN090, HGFDFN168, GM00038 and AG09602 were cultured with 5% O2. For bleomycin-induced senescence, IMR90 cells were incubated with the culture medium containing 20 μg ml^–1 Bleomycin (Selleck, catalog no. S1214) for 2 h and analyzed 10 days later, or as otherwise indicated. For doxorubicin-induced senescence, IMR90 cells were treated twice with 100 nM Doxorubicin (Selleck, catalog no. S1208) with a 2 day interval and analyzed 10 days later, or as otherwise indicated. For ionizing radiation (IR)-induced senescence, IMR90 cells were exposed to 10 Gy Gamma rays, and analyzed 10 days later, or as otherwise indicated, the control IMR90 cells were mock irradiated. For etoposide-induced senescence, IMR90 cells incubated with the culture medium containing 10 μM Etoposide (Sigma, catalog no. E1383) for 48 h and analyzed 10 days later, or as otherwise indicated.
as §1

“H-YGRKKRRQRRRYNLRSRTVLCGTCGQPADKASASGSGAQSPQNCSIM-OH (cysteines drawn unpaired) [UPCP, unique progerin C-terminal peptide]” was tested, and the “SAC signal response (p-H3)” value [1] was “repaired the SAC signal response”, the “effect on proliferation of normal cells” value (IMR90 cells) was “had little effect on proliferation of IMR90 cells; also recorded: no obvious effect on the proliferation of normal cells” and the “γH2AX foci per cell, n>10” value (IMR90-progerin cells; replicate 1) was 75%. The “γH2AX foci per cell, n≤10” value (IMR90-progerin cells; replicate 1) was 25%, the “γH2AX foci per cell, n>10” value (IMR90-progerin cells; replicate 2) was 69% and the “γH2AX foci per cell, n≤10” value (IMR90-progerin cells; replicate 2) was 31%. The “γH2AX foci per cell, n>10” value (IMR90-progerin cells; replicate 3) was 61%, the “γH2AX foci per cell, n≤10” value (IMR90-progerin cells; replicate 3) was 39% and the “γH2AX-53BP1 foci” value (IMR90-progerin cells; IMR90-progerin cells) was “lower level of γH2AX-53BP1 foci”. The “γH2AX and 53BP1 positive cells (/Mock)” value (HGADFN003 cells; HGADFN003, relative to Mock = 100, replicate 1) was 45%, the “γH2AX and 53BP1 positive cells (/Mock)” value (HGADFN003 cells; HGADFN003, relative to Mock = 100, replicate 2) was 55% and the “γH2AX and 53BP1 positive cells (/Mock)” value (HGADFN003 cells; HGADFN003, relative to Mock = 100, replicate 3) was 50%. The “γH2AX-53BP1 foci” value (HGADFN003 cells; HGPS fibroblasts) was “lower level of γH2AX-53BP1 foci”, the “proliferation of DNA damage-induced senescent cells” value (senescent IMR90 cells [2]) was “did not cause DNA damage-induced senescent cells to proliferate” and the “time to cellular uptake” value (HGPS cells) was ≤ 2 h. For the same substance, the “binding of BUBR1 to PTBP1” value (BUBR1–PTBP1 binding) was “did not block the binding of BUBR1 to other proteins such as PTBP1”, the Ki67 positive cells (senescent IMR90 cells [3]; BLM (bleomycin 20 μg/mL 2 h), replicate 1) was 14.5% and the Ki67 positive cells (senescent IMR90 cells [3]; BLM (bleomycin 20 μg/mL 2 h), replicate 2) was 18.5%. It also gave a Ki67 positive cells (senescent IMR90 cells [3]; BLM (bleomycin 20 μg/mL 2 h), replicate 3) of 21.5%, a Ki67 positive cells (senescent IMR90 cells [3]; Dox (doxorubicin 100 nM twice), replicate 1) of 14% and a Ki67 positive cells (senescent IMR90 cells [3]; Dox (doxorubicin 100 nM twice), replicate 2) of 22%. It also gave a Ki67 positive cells (senescent IMR90 cells [3]; Dox (doxorubicin 100 nM twice), replicate 3) of 19%, a Ki67 positive cells (senescent IMR90 cells [3]; Eto (etoposide 10 μM 48 h), replicate 1) of 18.5% and a Ki67 positive cells (senescent IMR90 cells [3]; Eto (etoposide 10 μM 48 h), replicate 2) of 20%. It also gave a Ki67 positive cells (senescent IMR90 cells [3]; Eto (etoposide 10 μM 48 h), replicate 3) of 14.5%, a Ki67 positive cells (senescent IMR90 cells [3]; IR (10 Gy), replicate 1) of 19% and a Ki67 positive cells (senescent IMR90 cells [3]; IR (10 Gy), replicate 2) of 15.5%. For the same substance, the Ki67 positive cells (senescent IMR90 cells [3]; IR (10 Gy), replicate 3) was 17%.
